We go through four compounds from PMC6407576, “Synthesis and evaluation of anticancer, antiphospholipases, antiproteases, and antimetabolic syndrome activities of some 3H-quinazolin-4-one derivatives” (Journal of Enzyme Inhibition and Medicinal Chemistry, 2019).

Molecules are shown by their SMILES.

The test system of data set [1] is SW620 cells. Briefly: MTT cell viability assay. The data set is classed as cell-based, Human. Conditions: SW620, 30 μg/ml, MTT. The method, then: (§1) Human CRC cell lines, HT-29 and SW620 cells were grown in RPMI (Invitrogen) containing 10% heat-inactivated foetal bovine serum, 100 µg/ml streptomycin, 100 units/ml penicillin and 2 mmol/l L-glutamine.
(§2) Cell viability was determined using the 3-(4, 5-dimethylthiazolyl-2)–2, 5-diphenyltetrazolium bromide) MTT assay according to Mosmann[40]. 5-Fluorouracil (5-FU) was used as positive control. Briefly, after culturing cells in 96 well plates for 24 h, they were treated with different compounds (30 μg/ml) for 24 h. Freshly prepared MTT (5 mM) solutions were added to the cells and were further incubated for 2 h at 37 °C in 5% CO2. One hundred microliters of dimethyl sulphoxide (DMSO) was added in each well to dissolve the formazan crystal, formed in the reaction during incubation by careful pipetting. The absorbance of the product was measured at 540 nm using a microplate reader. The experiments were performed in triplicate for each condition. The graph illustrates the mean and standard deviation (SD) values of three independent experiments.
(In general: Tetrazolium assays rely on reduction of a dye to a coloured formazan, in cell work by metabolically active cells.)

The subject of data set [2] is HT-29 cells. Kind of data set: MTT cell viability assay. It is filed as cell-based, Human. Conditions: HT-29, 30 μg/ml, MTT. The method, then:
as §1, §2

In data set [3] the target is Naja mossambica mossambica sPLA2 (NmPLA2). Briefly: In vitro antiphospholipase activity. The data set is classed as biochemical. Conditions: 20 min preincubation, lecithin substrate, pH 7.6.
Data set [4] concerns the target T1, human group V (hG-V) sPLA2 (Homo sapiens, UniProt P39877).
T1 sequence (P39877 21-138): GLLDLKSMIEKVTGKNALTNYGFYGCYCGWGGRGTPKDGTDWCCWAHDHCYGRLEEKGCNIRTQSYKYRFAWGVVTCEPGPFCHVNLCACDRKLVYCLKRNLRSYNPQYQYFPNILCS
Briefly: In vitro antiphospholipase activity. It is filed as biochemical. Conditions: 20 min preincubation, lecithin substrate, pH 7.6; read-out: mean IC50 against hG-V (converted).

Data set [5] concerns the target Apis mellifera bee venom (AmPLA2) (Apis mellifera, UniProt P00630). Briefly: biochemical.
Data set [6] deals with cathepsin-B (Homo sapiens, UniProt P07858). Kind of data set: In vitro antiprotease activity. The conditions noted are these: 15 min preincubation; read-out: mean IC50 against Cathepsin-B (converted). It is filed as biochemical. The method, then:
(§3) The inhibitory effects of 21 3H-quinazolin-4-one derivatives on several available therapeutically important proteases such as cathepsin-B, collagenase, elastase, thrombin, and trypsin were investigated. […] The protease inhibitory activity was expressed as inhibition percentage, which was determined by comparison with a control experiment. The results were expressed as IC50 values that were determined from the standard curve. A protease inhibitor cocktail (Sigma) was used as the positive control.

The target of data set [7] is thrombin (Homo sapiens, UniProt P00734). Briefly: In vitro antiprotease activity. The conditions noted are these: 15 min preincubation; read-out: mean IC50 against Thrombin (converted). It is filed as biochemical. As for the experimental part:
as §3

Data set [8] addresses elastase. Kind of data set: In vitro antiprotease activity. The data set is classed as biochemical. The conditions noted are these: 15 min preincubation. As for the experimental part: as §3
Data set [9] has as its target T2, trypsin (Bos taurus, UniProt P00760).
T2 construct: gene PRSS1
T2 sequence (P00760 24-246): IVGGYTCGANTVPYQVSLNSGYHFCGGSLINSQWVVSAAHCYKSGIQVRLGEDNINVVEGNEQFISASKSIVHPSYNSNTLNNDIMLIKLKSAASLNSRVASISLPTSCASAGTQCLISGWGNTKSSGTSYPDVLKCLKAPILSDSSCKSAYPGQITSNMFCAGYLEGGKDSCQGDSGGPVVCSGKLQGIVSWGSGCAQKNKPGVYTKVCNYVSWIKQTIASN
Briefly: In vitro antiprotease activity. It is filed as biochemical. Conditions: 15 min preincubation; read-out: mean IC50 against Trypsin (converted). The method, then: as §3

Data set [10] addresses collagenase. Kind of data set: In vitro antiprotease activity. The data set is classed as biochemical. The conditions noted are these: 15 min preincubation. As for the experimental part: as §3
Data set [11] deals with T3, human group X (hG-X) sPLA2 (Homo sapiens, UniProt O15496).
T3 sequence (O15496 43-165): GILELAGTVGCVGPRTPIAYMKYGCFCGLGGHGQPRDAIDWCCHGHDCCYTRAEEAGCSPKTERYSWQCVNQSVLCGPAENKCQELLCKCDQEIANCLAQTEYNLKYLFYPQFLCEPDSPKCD
Kind of data set: In vitro antiphospholipase activity. It is filed as biochemical. Conditions: 20 min preincubation, lecithin substrate, pH 7.6; read-out: mean IC50 against hG-X (converted).

The target in data set [12] is xanthine oxidase (Homo sapiens, UniProt P47989). Kind of data set: In vitro inhibition of xanthine oxidase. It is filed as biochemical.
Description: The xanthine oxidase inhibitory activities of the examined chemical compounds were determined by following the formation of uric acid from xanthine according to the reported method by Bondet and co-workers[46]. […] The results were expressed as IC50 determined from the curve.
The target of data set [13] is T4, human group IIA (hG-IIA) sPLA2 (Homo sapiens, UniProt P14555).
T4 sequence (P14555 21-144): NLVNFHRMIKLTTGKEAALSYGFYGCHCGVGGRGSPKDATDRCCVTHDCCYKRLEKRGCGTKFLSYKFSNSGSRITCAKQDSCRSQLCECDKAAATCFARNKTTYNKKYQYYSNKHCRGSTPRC
Kind of data set: In vitro antiphospholipase activity. The data set is classed as biochemical.

xanthine oxidase, sequence (P47989 whole entry, species assumed): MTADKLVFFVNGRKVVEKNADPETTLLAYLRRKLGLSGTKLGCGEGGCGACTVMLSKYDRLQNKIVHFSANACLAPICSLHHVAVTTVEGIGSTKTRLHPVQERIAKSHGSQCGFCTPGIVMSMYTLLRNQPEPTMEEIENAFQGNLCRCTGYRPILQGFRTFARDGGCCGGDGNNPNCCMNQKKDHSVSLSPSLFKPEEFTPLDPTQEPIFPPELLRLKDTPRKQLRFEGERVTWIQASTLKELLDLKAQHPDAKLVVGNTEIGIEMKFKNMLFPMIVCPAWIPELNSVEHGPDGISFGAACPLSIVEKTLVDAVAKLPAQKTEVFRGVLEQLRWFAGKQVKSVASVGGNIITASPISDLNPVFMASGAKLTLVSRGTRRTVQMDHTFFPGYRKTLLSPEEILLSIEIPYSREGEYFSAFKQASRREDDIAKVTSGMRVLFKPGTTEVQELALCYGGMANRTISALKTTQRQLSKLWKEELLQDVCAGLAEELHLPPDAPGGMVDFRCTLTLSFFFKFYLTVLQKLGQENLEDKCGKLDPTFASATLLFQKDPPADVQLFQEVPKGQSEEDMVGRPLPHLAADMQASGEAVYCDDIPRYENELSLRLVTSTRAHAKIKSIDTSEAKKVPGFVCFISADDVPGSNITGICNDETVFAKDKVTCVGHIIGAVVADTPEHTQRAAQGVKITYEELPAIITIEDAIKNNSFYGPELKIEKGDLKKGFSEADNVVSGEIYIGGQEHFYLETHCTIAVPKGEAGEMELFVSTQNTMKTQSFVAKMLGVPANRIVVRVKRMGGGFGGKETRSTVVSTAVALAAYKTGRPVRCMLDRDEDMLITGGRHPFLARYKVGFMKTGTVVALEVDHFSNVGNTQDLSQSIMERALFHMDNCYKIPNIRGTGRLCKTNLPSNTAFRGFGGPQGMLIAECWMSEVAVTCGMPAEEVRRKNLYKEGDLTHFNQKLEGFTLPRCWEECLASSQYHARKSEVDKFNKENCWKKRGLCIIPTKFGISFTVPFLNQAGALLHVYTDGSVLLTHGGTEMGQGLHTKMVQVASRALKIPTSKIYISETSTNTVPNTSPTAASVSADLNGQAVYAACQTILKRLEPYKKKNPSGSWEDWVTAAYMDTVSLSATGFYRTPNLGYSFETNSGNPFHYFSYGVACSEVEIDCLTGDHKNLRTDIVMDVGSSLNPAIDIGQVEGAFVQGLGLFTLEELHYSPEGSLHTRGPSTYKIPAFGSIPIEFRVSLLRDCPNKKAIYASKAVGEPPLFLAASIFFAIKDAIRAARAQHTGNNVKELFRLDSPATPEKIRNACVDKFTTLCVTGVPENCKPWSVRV
Apis mellifera bee venom (AmPLA2), sequence (P00630 34-167 limits assumed): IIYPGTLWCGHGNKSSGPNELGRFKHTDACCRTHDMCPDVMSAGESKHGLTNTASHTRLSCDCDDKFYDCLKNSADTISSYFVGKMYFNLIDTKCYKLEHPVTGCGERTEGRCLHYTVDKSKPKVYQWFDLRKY

Usually IC50 stands for the concentration that inhibits the measured activity by half. As usually defined, the melting point is the temperature, or range, at which the solid turns liquid. For `COc1cccc(/C=N/n2c(C)nc3ccc(Br)cc3c2=O)c1[N+](=O)[O-]` [Compound 8f, (E)-6-Bromo-3-[(3-methoxy-2-nitro-benzylidene)-amino]-2-methyl-3H-quinazolin-4-one], the melting point lay in the range of 234 to 235 °C. Further, in [1], the “inhibition of cell viability (in words)” value is on record as “potently capable of inhibiting cell viability”. Also, the “inhibition of cell viability (in words)” value in data set [2] is listed as “potently capable of inhibiting cell viability”. In addition, the “mean IC50 against NmPLA2” value in data set [3] was determined as 6.00 ± 0.71 µg/mL. In data set [4], the half-maximal inhibitory concentration (IC50) is 37.7 µM. The IC50 in [5] is 10.1 µM. In addition, the concentration for half-maximal inhibition (IC50) in data set [6] is 45.5 µM. The half-inhibitory concentration (IC50) in data set [7] was 59.9 µM. The “mean IC50 against Elastase” value in data set [8] came out at 30.50 ± 2.12 µg/mL. In [9], the IC50 was 74.3 µM. Further, the “mean IC50 against Collagenase” value in [10] was found to be 15.50 ± 2.12 µg/mL. Besides, the IC50 in [11] is 43.1 µM. The same compound had an IC50 in data set [12] of 7.19 µM. The IC50 in [13] is 44.6 µM.
Turning to `Cc1nc2ccccc2c(=O)n1/N=C/c1ccc2ccccc2c1` [Compound 8a, (E)-2-Methyl-3-[(naphthalen-2-ylmethylene)-amino]-3H-quinazolin-4-one], the “inhibition of cell viability (in words)” value in [1] and in data set [2] was “potently capable of inhibiting cell viability” each time. For the same compound, the “mean IC50 against NmPLA2” value in data set [3] stood at 36.75 ± 2.48 µg/mL. The IC50 in data set [4] was 121 µM; in [5], 98.9 µM; in data set [6], 116 µM; in data set [7], 109 µM; in [9], 110 µM; in data set [11] it was 90.9 µM. For the same compound, the figures for the IC50 in data set [12] and in data set [13] were 137 µM and 145 µM, respectively. In data set [8], the “mean IC50 against Elastase” value worked out at 32.50 ± 2.12 µg/mL. Besides, the “mean IC50 against Collagenase” value in data set [10] was found to be 31.00 ± 1.41 µg/mL.
Take `Cc1nc2ccc(Br)cc2c(=O)n1/N=C/c1ccc(-c2ccccc2)cc1` [Compound 8j, (E)-3-[(Biphenyl-4-ylmethylene)-amino]-6-bromo-2-methyl-3H-quinazolin-4-one]: the melting point is 208 to 210 °C. Besides, in [1], the “inhibition of cell viability (in words)” value was “potently capable of inhibiting cell viability”. Also, the “inhibition of cell viability (in words)” value in data set [2] was “potently capable of inhibiting cell viability”. The “mean IC50 against NmPLA2” value in [3] is 16.40 ± 0.85 µg/mL. Besides, the IC50 in data set [4] was 14.9 µM. The IC50 in data set [5] is 45.4 µM. Besides, the half-maximal inhibitory concentration (IC50) in [6] was 3.35 µM. Further, the IC50 in data set [7] is 29.9 µM. Moreover, in data set [8], the “mean IC50 against Elastase” value was determined as 9.00 ± 0.41 µg/mL. Besides, the concentration for half-maximal inhibition (IC50) in data set [9] was 22.7 µM. The “mean IC50 against Collagenase” value in [10] was determined as 14.00 ± 1.41 µg/mL. In addition, the IC50 in data set [11] was 22.6 µM. The same compound had an IC50 in [12] of 49 µM. For the same compound, 20.2 µM corresponded to half-maximal inhibition in data set [13] (IC50).
For `O=c1c2ccccc2nc(SCc2ccc(Cl)cc2)n1-c1ccccc1` [Compound 15a], the “inhibition of cell viability (in words)” value in [1] and in data set [2] was “potently capable of inhibiting cell viability” in each case. Further, the “mean IC50 against NmPLA2” value in [3] stood at 5.40 ± 0.57 µg/mL. In addition, the IC50 in data set [4] was 27.7 µM; in data set [5], 17.2 µM; in data set [6], 48.8 µM; in [7], 35.6 µM; in data set [9], 31.7 µM; in data set [11], 17.8 µM. Moreover, the IC50 is 31.7 µM in data set [12] and 22.7 µM in data set [13]. Besides, the “mean IC50 against Elastase” value in [8] was found to be 11.50 ± 2.12 µg/mL. Besides, in data set [10], the “mean IC50 against Collagenase” value worked out at 28.00 ± 1.41 µg/mL.
